# “And” between values parts separate entries of the source, which are not always exact repeats. Equal values may be shown once. Read-outs that look alike come from different tables or passages of the source.
# What was measured:
# [1] = tested on: C. difficile (endospores) ATCC 43598
# [2] = tested on: E. coli K12; settings: for Log10 reduction / Log10 reduction vs. Control: DHP (+)
# [3] = tested on: eggs and hatched chicks
# Protocol: A total of 22 replicates of 90 eggs each of age matched, flock matched eggs are stored prior to incubation for 4 to 7 days in an on-site egg room at about 20° C. […] The paired replicates are then incubated to hatching under standard commercial conditions. At hatching, the following parameters are assessed and recorded: Total Hatchability (%), Fertile Hatchability (%),% Infertile, Early dead (%), Mid dead (%), Late dead (%), Cracked (%), Contaminated (%), Live pip (%), Dead pip (%), Cull dead chick (%), Chick Weight (g), Chick A (%), and Chick B (%).
# [4] = tested on: MS2 Bacteriophage ATCC 15597-B1
# [5] = second contact time (48 hours), Hood (Treated)
# [6] = second contact time (48 hours), Room (Treated)
# [7] = Day 4 DHP+, summary of replicates stored 4 days
# [8] = Day 5 DHP+, summary of replicates stored 5 days
# [9] = Day 6 DHP+, summary of replicates stored 6 days
# [10] = Day 7 DHP+, summary of replicates stored 7 days
# [11] = Delta Avg. Trtd versus Avg. Untrd, egg storage 4 to 7 days
# [12] = Mean / Avg. Trtd, 22 DHP replicates, egg storage 4 to 7 days
# [13] = with DHP, egg storage 4 days, single replicate of 90 eggs
# [14] = with DHP, egg storage 5 days, single replicate of 90 eggs
# [15] = with DHP, egg storage 6 days, single replicate of 90 eggs
# [16] = with DHP, egg storage 7 days, single replicate of 90 eggs
structure (smiles),measurement,setting,value
"OO [DHP, dry hydrogen peroxide]",Average CFU/Carrier,"[1]; 24 Hours, Hood (Treated)",2.75E+06 CFU/Carrier
same,Log Reduction compared to Control,"[1]; 24 Hours, Hood (Treated)",None
same,Percent Reduction compared to Control,"[1]; 24 Hours, Hood (Treated)",None
same,Average CFU/Carrier,"[1]; 24 Hours, Room (Treated)",1.53E+06 CFU/Carrier
same,Log Reduction compared to Control,"[1]; 24 Hours, Room (Treated)",0.07 Log
same,Percent Reduction compared to Control,"[1]; 24 Hours, Room (Treated)",13.96%
same,Average CFU/Carrier,"[1]; 72 Hours, Hood (Treated)",1.80E+06 CFU/Carrier
same,Log Reduction compared to Control,"[1]; 72 Hours, Hood (Treated)",0.31 Log
same,Percent Reduction compared to Control,"[1]; 72 Hours, Hood (Treated)",51.02%
same,Average CFU/Carrier,"[1]; 72 Hours, Room (Treated)",3.35E+06 CFU/Carrier
same,Log Reduction compared to Control,"[1]; 72 Hours, Room (Treated)",0.04 Log
same,Percent Reduction compared to Control,"[1]; 72 Hours, Room (Treated)",8.84%
same,Average CFU/Carrier,[1]; [5],3.10E+06 CFU/Carrier
same,Log Reduction compared to Control,[1]; [5],0.24 Log
same,Percent Reduction compared to Control,[1]; [5],42.06%
same,Average CFU/Carrier,[1]; [6],3.53E+06 CFU/Carrier
same,Log Reduction compared to Control,[1]; [6],0.18 Log
same,Percent Reduction compared to Control,[1]; [6],34.11%
same,Log10 reduction,[2]; 1 hour,>4.78 Log10
same,Log10 reduction vs. Control,[2]; 1 hour,2.82 Log10
same,Log10 reduction,[2]; 2 hours,>4.79 Log10
same,Log10 reduction vs. Control,[2]; 2 hours,1.71 Log10
same,elimination of aerosolized bacteria from the DHP treated space,[2]; within one hour,essentially eliminated
same,"% Infertile, delta","[3]; 4 day delta, DHP+ versus DHP−",0.64%
same,"Chick A, delta","[3]; 4 day delta, DHP+ versus DHP−",0.14%
same,"Chick B, delta","[3]; 4 day delta, DHP+ versus DHP−",−0.14%
same,"Chick Weight, delta","[3]; 4 day delta, DHP+ versus DHP−",0.89 g
same,"Cont, delta","[3]; 4 day delta, DHP+ versus DHP−",0.00%
same,"Crack, delta","[3]; 4 day delta, DHP+ versus DHP−",0.32%
same,"Cull dead cks, delta","[3]; 4 day delta, DHP+ versus DHP−",0.00%
same,"Dead pip, delta","[3]; 4 day delta, DHP+ versus DHP−",−0.16%
same,"Early dead, delta","[3]; 4 day delta, DHP+ versus DHP−",−0.33%
same,"Fertile Hatchability, delta","[3]; 4 day delta, DHP+ versus DHP−",0.12%
same,"Late dead, delta","[3]; 4 day delta, DHP+ versus DHP−",−0.64%
same,"Live pip, delta","[3]; 4 day delta, DHP+ versus DHP−",0.63%
same,"Mid dead, delta","[3]; 4 day delta, DHP+ versus DHP−",0.16%
same,"Total Hatchability, delta","[3]; 4 day delta, DHP+ versus DHP−",−0.64%
same,"Chick Weight, delta","[3]; 5 day delta, DHP+ versus DHP−",0.85 g
same,"Cont, delta","[3]; 5 day delta, DHP+ versus DHP−",0.00%
same,"Crack, delta","[3]; 5 day delta, DHP+ versus DHP−",−0.19%
same,"Cull dead cks, delta","[3]; 5 day delta, DHP+ versus DHP−",0.00%
same,"Dead pip, delta","[3]; 5 day delta, DHP+ versus DHP−",−0.37%
same,"Early dead, delta","[3]; 5 day delta, DHP+ versus DHP−",−1.70%
same,"Fertile Hatchability, delta","[3]; 5 day delta, DHP+ versus DHP−",3.20%
same,"Live pip, delta","[3]; 5 day delta, DHP+ versus DHP−",0.37%
same,"Mid dead, delta","[3]; 5 day delta, DHP+ versus DHP−",0.74%
same,"% Infertile, delta","[3]; 6 day delta, DHP+ versus DHP−",0.94%
same,"Chick A, delta","[3]; 6 day delta, DHP+ versus DHP−",−0.57%
same,"Chick B, delta","[3]; 6 day delta, DHP+ versus DHP−",0.57%
same,"Chick Weight, delta","[3]; 6 day delta, DHP+ versus DHP−",0.49 g
same,"Cont, delta","[3]; 6 day delta, DHP+ versus DHP−",0.00%
same,"Crack, delta","[3]; 6 day delta, DHP+ versus DHP−",0.00%
same,"Cull dead cks, delta","[3]; 6 day delta, DHP+ versus DHP−",−0.48%
same,"Dead pip, delta","[3]; 6 day delta, DHP+ versus DHP−",−0.48%
same,"Late dead, delta","[3]; 6 day delta, DHP+ versus DHP−",−0.82%
same,"Live pip, delta","[3]; 6 day delta, DHP+ versus DHP−",−0.16%
same,"Mid dead, delta","[3]; 6 day delta, DHP+ versus DHP−",0.48%
same,Cont,[3]; [7],0.00%
same,Crack,[3]; [7],0.48%
same,Cull dead cks,[3]; [7],0.00%
same,Dead pip,[3]; [7],0.16%
same,Live pip,[3]; [7],0.95%
same,Mid dead,[3]; [7],0.16%
same,Cont,[3]; [8],0.00%
same,Crack,[3]; [8],0.00%
same,Cull dead cks,[3]; [8],0.00%
same,Dead pip,[3]; [8],0.00%
same,Live pip,[3]; [8],0.56%
same,Mid dead,[3]; [8],0.93%
same,Cont,[3]; [9],0.00%
same,Crack,[3]; [9],0.00%
same,Cull dead cks,[3]; [9],0.00%
same,Dead pip,[3]; [9],0.00%
same,Early dead,[3]; [9],2.70%
same,Live pip,[3]; [9],0.16%
same,Mid dead,[3]; [9],0.79%
same,% Infertile,[3]; [10],0.56%
same,Cont,[3]; [10],0.00%
same,Crack,[3]; [10],0.00%
same,Cull dead cks,[3]; [10],0.56%
same,Dead pip,[3]; [10],0.00%
same,Mid dead,[3]; [10],0.56%
same,"% Infertile, delta","[3]; Day 7 Delta, DHP+ versus DHP−",0.00%
same,"Chick Weight, delta","[3]; Day 7 Delta, DHP+ versus DHP−",1.10 g
same,"Cont, delta","[3]; Day 7 Delta, DHP+ versus DHP−",−0.56%
same,"Crack, delta","[3]; Day 7 Delta, DHP+ versus DHP−",0.00%
same,"Cull dead cks, delta","[3]; Day 7 Delta, DHP+ versus DHP−",0.56%
same,"Dead pip, delta","[3]; Day 7 Delta, DHP+ versus DHP−",0.00%
same,"Fertile Hatchability, delta","[3]; Day 7 Delta, DHP+ versus DHP−",0.56%
same,"Late dead, delta","[3]; Day 7 Delta, DHP+ versus DHP−",0.55%
same,"Mid dead, delta","[3]; Day 7 Delta, DHP+ versus DHP−",0.56%
same,"Total Hatchability, delta","[3]; Day 7 Delta, DHP+ versus DHP−",0.56%
same,"% Infertile, delta",[3]; [11],1.00%
same,"Chick A, delta",[3]; [11],0.23%
same,"Chick B, delta",[3]; [11],−0.23%
same,"Chick Weight, delta",[3]; [11],0.77 g
same,"Cont, delta",[3]; [11],−0.05%
same,"Crack, delta",[3]; [11],0.05%
same,"Cull dead cks, delta",[3]; [11],−0.10%
same,"Dead pip, delta",[3]; [11],−0.30%
same,"Early dead, delta",[3]; [11],−1.70%
same,"Late dead, delta",[3]; [11],−0.97%
same,"Live pip, delta",[3]; [11],0.35%
same,"Mid dead, delta",[3]; [11],0.45%
same,Cont,[3]; [12],0.00%
same,Crack,[3]; [12],0.15%
same,Cull dead cks,[3]; [12],0.05%
same,Dead pip,[3]; [12],0.05%
same,Live pip,[3]; [12],0.61%
same,Mid dead,[3]; [12],0.61%
same,improvement in number of A grade chicks,[3]; all storage times,0.23%
same,increase of fertile hatchability vs untreated,[3]; an additional day (five days),3.2%
same,increase of total hatchability vs untreated,[3]; an additional day (five days),1.3%
same,increased weight vs untreated,[3]; an additional day (five days),0.85 grams
same,DHP gas treated eggs observed to be contaminated,[3]; at day 7,none
same,decrease of number of early deaths,[3]; death during incubation,about 1.7%
same,mid cycle deaths,[3]; death during incubation,decreased
same,change of fertile hatchability vs untreated,[3]; eggs treated four days,+0.12
same,change of total hatchability vs untreated,[3]; eggs treated four days,−0.64%
same,increased weight vs untreated,[3]; eggs treated four days,+0.89 g
same,increase of fertile hatchability vs untreated,[3]; seven day storage,0.56%
same,increase of total hatchability vs untreated,[3]; seven day storage,0.56%
same,increased weight vs untreated,[3]; seven day storage,1.10 grams
same,increase of fertile hatchability vs untreated,[3]; six days,4.67%
same,increase of total hatchability vs untreated,[3]; six days,2.96%
same,increased weight vs untreated,[3]; six days,0.49 grams
same,number of live pip eggs,[3]; vs untreated,increases
same,% Infer,[3]; [13],0.00%
same,Chick B,[3]; [13],2.40% and 4.80% and 3.70%
same,Cont,[3]; [13],0.00%
same,Crack,[3]; [13],0.00%
same,Cull dead,[3]; [13],0.00%
same,Dead pip,[3]; [13],0.00%
same,Late dead,[3]; [13],0.00%
same,Live pip,[3]; [13],0.00%
same,Mid dead,[3]; [13],0.00%
same,% Infer,[3]; [14],10.00%
same,Chick A,[3]; [14],100.0%
same,Cont,[3]; [14],0.00%
same,Crack,[3]; [14],0.00%
same,Cull dead,[3]; [14],0.00%
same,Dead pip,[3]; [14],0.00%
same,Late dead,[3]; [14],0.00%
same,Live pip,[3]; [14],0.00%
same,Mid dead,[3]; [14],0.00%
same,Total Hatchblty,[3]; [14],90.00%
same,% Infer,[3]; [15],0.00%
same,Chick B,[3]; [15],4.80%
same,Cont,[3]; [15],0.00%
same,Crack,[3]; [15],0.00%
same,Cull dead,[3]; [15],0.00%
same,Dead pip,[3]; [15],0.00%
same,Late dead,[3]; [15],0.00%
same,Live pip,[3]; [15],0.00%
same,Mid dead,[3]; [15],0.00%
same,Total Hatchblty,[3]; [15],90.00%
same,% Infer,[3]; [16],0.00%
same,Check Weight,[3]; [16],44.94 g and 44.41 g
same,Cont,[3]; [16],0.00%
same,Crack,[3]; [16],0.00%
same,Cull dead,[3]; [16],0.00%
same,Dead pip,[3]; [16],0.00%
same,Live pip,[3]; [16],0.00%
same,Mid dead,[3]; [16],0.00%
same,Log10 reduction,"[4]; DHP (+), 1 hour",3.54 Log10
same,Log10 reduction vs. Control,"[4]; DHP (+), 1 hour",2.70 Log10
same,elimination of airborne phage,[4]; within one hour,essentially eliminated

# From US12102063B2 (SYNEXIS LLC, priority 2017, dated 2024)
